Legend:
[1] = test system: DOPA accumulation in eminentia mediana; test: DOPA accumulation in eminentia mediana after NSD-1015; format: in vivo, Sprague-Dawley rats
Method: Acute administration of atypical antipsychotics results in enhanced accumulation of dihydroxyphenylalanine (DOPA) in the […] after the inhibition of DOPA decarboxylase. In contrast, DOPA accumulation is not altered by the typical antipsychotics (Andersson, G, Albinsson, A, Pettersson, G, Arzneimittelforschung. 1990, 40, 237; Gudelsky, G. A., Meltzer, H. Y. Neuropsychopharmacology, 1989, 2, 45). The effect of the compound of Example 121 on DOPA-accumulation was measured by analyzing the levels of DOPA in […]. […] (EM), were dissected out from the brains on ice-cold plates and kept at -70° C. until they were assayed for DOPA by HPL-EC. Statistical analysis was carried out using one-way ANOVA followed by Duncan test.

PCP-induced locomotion = test: PCP induced locomotor activity test (open field); format: in vivo, mice; settings: all doses (1, 3, 6, 10, 15 mg/kg) by gavage, PCP 5 mg/kg, vs vehicle
Method: The effects of compounds 121 and 183, administered orally, were also evaluated in the PCP induced locomotor activity test. Compound 121 was designated as “Compound A” and Compound 183 was designated as “Compound B” for purposes of this study. In general, the study aimed to test Compounds A and B for potential antipsychotic activity in PCP treated mice.
Compounds A & B were dissolved in 3% Tween: Compound A: 1, 3, 6, 10, and 15 mg/kg; Compound B: 3, 7, 14, 28, and 40 mg/kg; Compounds A+B were administered by gavage.
PCP (5 mg/kg) was dissolved in sterile injectable water.
The open field (“OF”) test assessed both anxiety and locomotor behavior. The open field chambers are Plexiglas square chambers (27.3×27.3×20.3 cm; Med Associates Inc., St Albans, Vt.) surrounded by infrared photobeams (16×16×16) to measure horizontal and vertical activity. The analysis was configured to divide the open field into a center and periphery zone. Distance traveled was measured from horizontal beam breaks as the mouse moved whereas rearing activity was measured from vertical beam breaks.
Mice were brought to the activity experimental room for at least 1 hr acclimation to the experimental room conditions prior to testing. […]
Data was analyzed to show baseline activity (activity during the 30 min prior to PCP injection) and PCP-induced activity (activity during the 60 min after PCP injection).

CNC(=O)N1N=C(c2ccc(N)cc2)c2cc(OC)c(OC)cc2C[C@H]1C [Example 121]
DOPA levels (pg/tissue block) ([1]; rat eminentia mediana, 10 mg/kg ip, mean ± SEM): 484 ± 34 pg/tissue block
DOPA levels (pg/tissue block) ([1]; rat eminentia mediana, 20 mg/kg ip, mean ± SEM): 652 ± 69 pg/tissue block
DOPA levels (pmol/mg prot) ([1]; rat eminentia mediana, 40 mg/kg ip, mean ± SEM): 94.0 ± 11.4 pmol/mg prot
effect on levels of DOPA in the EM of rats ([1]; result in words, vs saline): significantly increased
effect on PCP induced locomotion (PCP-induced locomotion): significantly decreased
